Square brackets hold non-standard residues; d marks the D form. Peptide text beside a SMILES is read from it. AEEA = NCCOCCOCC(=O)O
Tests used:
human GLP-1 R = target: T1, human GLP-1 R (Homo sapiens, UniProt P43220); experiment: Human GLP-1 receptor efficacy assay (cAMP induction, FlashPlate); assay type: cell-based; details: Table 2; read-out: hGLP-1 R EC50
T1 construct: expressed in transfected cells
Method: On the day of analysis, growth medium was removed and the cells were washed once with 200 μl Tyrode buffer [Tyrode's Salts (9.6 g/l), 10 mM HEPES, pH 7.4]. […] The reaction was stopped by addition of 25 μl 0.5 M HCl and incubated on ice for 60 min.

human CCK-B R = target: T2, human CCK-B R (Homo sapiens, UniProt P32239); experiment: Human CCK-B receptor efficacy assay (AlphaScreen SureFire p-ERK); assay type: cell-based; details: Table 2; read-out: hCCK-B R EC50
T2 construct: expressed in transfected cells
T2 sequence (P32239 1-447): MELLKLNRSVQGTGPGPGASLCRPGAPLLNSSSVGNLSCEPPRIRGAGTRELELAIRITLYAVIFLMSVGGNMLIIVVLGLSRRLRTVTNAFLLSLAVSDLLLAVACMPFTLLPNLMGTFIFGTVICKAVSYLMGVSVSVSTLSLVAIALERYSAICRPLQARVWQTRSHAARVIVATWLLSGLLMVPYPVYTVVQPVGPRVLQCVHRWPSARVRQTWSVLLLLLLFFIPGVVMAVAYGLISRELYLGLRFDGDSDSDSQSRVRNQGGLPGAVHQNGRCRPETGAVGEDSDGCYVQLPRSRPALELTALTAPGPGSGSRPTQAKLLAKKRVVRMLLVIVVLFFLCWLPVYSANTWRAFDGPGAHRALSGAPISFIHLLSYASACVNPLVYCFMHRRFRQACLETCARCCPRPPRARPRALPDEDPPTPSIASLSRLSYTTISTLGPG

T1 sequence (P43220 24-463): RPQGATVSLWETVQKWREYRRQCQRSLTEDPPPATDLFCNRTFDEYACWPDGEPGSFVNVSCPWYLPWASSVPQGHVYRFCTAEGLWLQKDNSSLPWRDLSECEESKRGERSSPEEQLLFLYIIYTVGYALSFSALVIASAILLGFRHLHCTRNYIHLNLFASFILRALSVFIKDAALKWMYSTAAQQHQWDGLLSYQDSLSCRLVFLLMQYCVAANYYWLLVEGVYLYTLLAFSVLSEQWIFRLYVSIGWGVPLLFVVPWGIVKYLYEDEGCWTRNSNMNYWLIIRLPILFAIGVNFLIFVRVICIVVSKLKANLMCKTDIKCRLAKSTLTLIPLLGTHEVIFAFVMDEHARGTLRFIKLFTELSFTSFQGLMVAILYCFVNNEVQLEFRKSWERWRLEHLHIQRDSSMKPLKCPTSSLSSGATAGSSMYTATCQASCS

Row | SMILES | EC50 (human GLP-1 R) [nM] | EC50 (human CCK-B R) [nM]
1 | CC[C@H](C)[C@H](NC(=O)[C@H](Cc1ccccc1)NC(=O)[C@H](CC(C)C)NC(=O)[C@H](CCCNC(=N)N)NC(=O)[C@@H](NC(=O)[C@H](C)NC(=O)[C@H](CCC(=O)O)NC(=O)[C@H](CCC(=O)O)NC(=O)[C@H](CCC(=O)O)NC(=O)[C@H](CC(C)C)NC(=O)[C@H](Cc1ccc(O)cc1)NC(=O)[C@H](CCCCN)NC(=O)[C@H](CO)NC(=O)[C@H](CC(C)C)NC(=O)[C@H](CCC(=O)O)NC(=O)[C@H](CO)NC(=O)[C@@H](NC(=O)[C@H](Cc1ccccc1)NC(=O)[C@@H](NC(=O)CNC(=O)[C@H](CCC(=O)O)NC(=O)CNC(=O)[C@@H](N)Cc1c[nH]cn1)[C@@H](C)O)[C@@H](C)O)C(C)C)C(=O)N[C@@H](CCC(=O)O)C(=O)N[C@@H](Cc1ccccc1)C(=O)N[C@@H](CC(C)C)C(=O)N[C@@H](CCCCN)C(=O)NCCOCCOCC(=O)NCCOCCOCC(=O)N[C@@H](Cc1ccc(O)cc1)C(=O)NCC(=O)N[C@@H](Cc1ccccc1)C(=O)N[C@@H](CC(C)C)C(=O)N[C@@H](CC(=O)O)C(=O)N[C@@H](Cc1ccccc1)C(N)=O [Compound 90, [Glu9,Leu14,Phe25,Tyr13]Exendin-4(1-27)-Peg3-Peg3-[Leu4,Phe3]Gastrin6] (H-HGEGTFTSELSKYLEEEAVRLFIEFLK[AEEA][AEEA]YGFLDF-NH2) | 0.032 | 1300
2 | CC[C@H](C)[C@H](NC(=O)[C@H](Cc1ccccc1)NC(=O)[C@H](CC(C)C)NC(=O)[C@H](CCCNC(=N)N)NC(=O)[C@@H](NC(=O)[C@H](C)NC(=O)[C@H](CCC(=O)O)NC(=O)[C@H](CCC(=O)O)NC(=O)[C@H](CCC(=O)O)NC(=O)[C@H](CC(C)C)NC(=O)[C@H](Cc1ccc(O)cc1)NC(=O)[C@H](CCCCN)NC(=O)[C@H](CO)NC(=O)[C@H](CC(C)C)NC(=O)[C@H](CC(=O)O)NC(=O)[C@H](CO)NC(=O)[C@@H](NC(=O)[C@H](Cc1ccccc1)NC(=O)[C@@H](NC(=O)CNC(=O)[C@H](CCC(=O)O)NC(=O)CNC(=O)[C@@H](N)Cc1c[nH]cn1)[C@@H](C)O)[C@@H](C)O)C(C)C)C(=O)N[C@@H](CCC(=O)O)C(=O)N[C@@H](Cc1ccccc1)C(=O)N[C@@H](CC(C)C)C(=O)N[C@@H](CCCNC(=N)N)C(=O)NCCOCCOCC(=O)N[C@@H](Cc1ccc(O)cc1)C(=O)NCC(=O)N[C@@H](Cc1c[nH]c2ccccc12)C(=O)N[C@@H](CC(C)C)C(=O)N[C@@H](CC(=O)O)C(=O)N[C@@H](Cc1ccccc1)C(N)=O [Compound 91, [Arg27,Leu14,Phe25,Tyr13]Exendin-4(1-27)-Peg3-[Leu4]Gastrin6] (H-HGEGTFTSDLSKYLEEEAVRLFIEFLR[AEEA]YGWLDF-NH2) | 0.068 | 18
3 | CC[C@H](C)[C@H](NC(=O)[C@H](Cc1ccccc1)NC(=O)[C@H](CC(C)C)NC(=O)[C@H](CCCNC(=N)N)NC(=O)[C@@H](NC(=O)[C@H](C)NC(=O)[C@H](CCC(=O)O)NC(=O)[C@H](CCCCN)NC(=O)[C@H](CCC(=O)O)NC(=O)[C@H](CC(C)C)NC(=O)[C@H](Cc1ccc(O)cc1)NC(=O)[C@H](CCCNC(=N)N)NC(=O)[C@H](CO)NC(=O)[C@H](CC(C)C)NC(=O)[C@H](CC(=O)O)NC(=O)[C@H](CO)NC(=O)[C@@H](NC(=O)[C@H](Cc1ccccc1)NC(=O)[C@@H](NC(=O)CNC(=O)[C@H](CCC(=O)O)NC(=O)CNC(=O)[C@@H](N)Cc1c[nH]cn1)[C@@H](C)O)[C@@H](C)O)C(C)C)C(=O)N[C@@H](CCC(=O)O)C(=O)N[C@@H](Cc1ccccc1)C(=O)N[C@@H](CC(C)C)C(=O)N[C@@H](CCCNC(=N)N)C(=O)NCCOCCOCC(=O)N[C@@H](Cc1ccc(O)cc1)C(=O)NCC(=O)N[C@@H](Cc1c[nH]c2ccccc12)C(=O)N[C@@H](CC(C)C)C(=O)N[C@@H](CC(=O)O)C(=O)N[C@@H](Cc1ccccc1)C(N)=O [Compound 92, [Arg12,27,Leu14,Lys16,Phe25,Tyr13]Exendin-4(1-27)-Peg3-[Leu4]Gastrin6] (H-HGEGTFTSDLSRYLEKEAVRLFIEFLR[AEEA]YGWLDF-NH2) | 0.17 | 26

More lines, now with the values ahead:

Row | EC50 (human GLP-1 R) [nM] | EC50 (human CCK-B R) [nM] | SMILES
4 | 0.058 | 26 | CC[C@H](C)[C@H](NC(=O)[C@H](Cc1ccccc1)NC(=O)[C@H](CC(C)C)NC(=O)[C@H](CCCCN)NC(=O)[C@@H](NC(=O)[C@H](C)NC(=O)[C@H](CCC(=O)O)NC(=O)[C@H](CCC(=O)O)NC(=O)[C@H](CCC(=O)O)NC(=O)[C@H](CC(C)C)NC(=O)[C@H](Cc1ccc(O)cc1)NC(=O)[C@H](CCCNC(=N)N)NC(=O)[C@H](CO)NC(=O)[C@H](CC(C)C)NC(=O)[C@H](CC(=O)O)NC(=O)[C@H](CO)NC(=O)[C@@H](NC(=O)[C@H](Cc1ccccc1)NC(=O)[C@@H](NC(=O)CNC(=O)[C@H](CCC(=O)O)NC(=O)CNC(=O)[C@@H](N)Cc1c[nH]cn1)[C@@H](C)O)[C@@H](C)O)C(C)C)C(=O)N[C@@H](CCC(=O)O)C(=O)N[C@@H](Cc1ccccc1)C(=O)N[C@@H](CC(C)C)C(=O)N[C@@H](CCCNC(=N)N)C(=O)NCCOCCOCC(=O)N[C@@H](Cc1ccc(O)cc1)C(=O)NCC(=O)N[C@@H](Cc1c[nH]c2ccccc12)C(=O)N[C@@H](CC(C)C)C(=O)N[C@@H](CC(=O)O)C(=O)N[C@@H](Cc1ccccc1)C(N)=O [Compound 93, [Arg12,27,Leu14,Lys20,Phe25,Tyr13]Exendin-4(1-27)-Peg3-[Leu4]Gastrin6] (H-HGEGTFTSDLSRYLEEEAVKLFIEFLR[AEEA]YGWLDF-NH2)
5 | 0.13 | 36 | CC[C@H](C)[C@H](NC(=O)[C@H](Cc1ccccc1)NC(=O)[C@H](CC(C)C)NC(=O)[C@H](CCCNC(=N)N)NC(=O)[C@@H](NC(=O)[C@H](C)NC(=O)[C@H](CCC(=O)O)NC(=O)[C@H](CCC(=O)O)NC(=O)[C@H](CCC(=O)O)NC(=O)[C@H](CC(C)C)NC(=O)[C@H](Cc1ccc(O)cc1)NC(=O)[C@H](CCCNC(=N)N)NC(=O)[C@H](CO)NC(=O)[C@H](CC(C)C)NC(=O)[C@H](CC(=O)O)NC(=O)[C@H](CO)NC(=O)[C@@H](NC(=O)[C@H](Cc1ccccc1)NC(=O)[C@@H](NC(=O)CNC(=O)[C@H](CCC(=O)O)NC(=O)CNC(=O)[C@@H](N)Cc1c[nH]cn1)[C@@H](C)O)[C@@H](C)O)C(C)C)C(=O)N[C@@H](CCCCN)C(=O)N[C@@H](Cc1ccccc1)C(=O)N[C@@H](CC(C)C)C(=O)N[C@@H](CCCNC(=N)N)C(=O)NCCOCCOCC(=O)N[C@@H](Cc1ccc(O)cc1)C(=O)NCC(=O)N[C@@H](Cc1c[nH]c2ccccc12)C(=O)N[C@@H](CC(C)C)C(=O)N[C@@H](CC(=O)O)C(=O)N[C@@H](Cc1ccccc1)C(N)=O [Compound 94, [Arg12,27,Leu14,Lys24,Phe25,Tyr13]Exendin-4(1-27)-Peg3-[Leu4]Gastrin6] (H-HGEGTFTSDLSRYLEEEAVRLFIKFLR[AEEA]YGWLDF-NH2)

From patent US10406207B2, “Peptide conjugates of GLP-1 receptor agonists and gastrin and their use” (priority 2010, dated 2019)
